Experimental findings from patent US20240082334A1, “STABILIZED STEVIOL GLYCOSIDE COMPOSITIONS AND USES THEREOF” (CARGILL, INCORPORATED, priority 2017, published 2024) are described below.

The nature of this data set: Reb M solubility in D2O observed in NMR sample preparation. In kind it is physicochemical. The conditions noted are these: when SCs are not present, compared with SCs present; room temperature. How it is done:
A total of four samples were prepared for this study, and they are listed below. Each sample was dissolved fully in water, with or without heat as noted below, flash frozen at −80° C., and then placed on a lyophilizer until dry. The dry powders were subsequently dissolved in D2O at room temperature and analyzed by ^1H NMR and ^13C NMR.

Take `C=C1C[C@@]23CC[C@H]4[C@@](C)(CCC[C@@]4(C)C(=O)O[C@@H]4O[C@H](CO)[C@@H](O)[C@H](O[C@@H]5O[C@H](CO)[C@@H](O)[C@H](O)[C@H]5O)[C@H]4O[C@@H]4O[C@H](CO)[C@@H](O)[C@H](O)[C@H]4O)[C@@H]2CC[C@]1(O[C@@H]1O[C@H](CO)[C@@H](O)[C@H](O[C@@H]2O[C@H](CO)[C@@H](O)[C@H](O)[C@H]2O)[C@H]1O[C@@H]1O[C@H](CO)[C@@H](O)[C@H](O)[C@H]1O)C3` [Reb M, Rebaudioside M]: the “solubility in D2O” value was “much lower”.
